In brackets after ≈: the same amount, converted by molar mass. Read-outs that look alike come from different tables or passages of the source.
Key:
Assay type in all cases: cell-based
[1] = test system: L. infantum promastigotes; test: Anti-Leishmania activity, resazurin-based assay; conditions: read-out: Anti-Parasitic Activity IC50 (µM) 95% CI, L. infantum Promastigotes
Method: Promastigotes from the L. infantum strain (MHOM/MA/67/ITMAP-263) were grown in 5-mL T25 flasks in Schneider’s insect medium supplemented with 10% heat-inactivated fetal bovine serum (FBS), 200 U/mL penicillin/streptomycin, 6 µg/mL Phenol Red, and 5 mM HEPES. The cultures were maintained in an incubator at 27 °C and diluted to 2 × 10^5/mL every 5 days. For the assays, the parasites used were equivalent to late/log with 2 or 3 days of culture.
The compounds’ efficacy against L. infantum promastigotes was evaluated using a resazurin-based assay. Parasites were added to 100 µL of serial dilutions of compounds in supplemented complete medium at a cell density of 5 × 10^5/mL. As a quality control, a dose–response curve to the antileishmanial drug miltefosine was included in all the assays. The final volume of the assay was 200 µL/well. Each condition was carried out in duplicate. Following 72 h of incubation at the specific conditions for parasites, 20 µL of a 0.5 mM resazurin solution was added, and the plates were incubated for a further 4 h under the same conditions. Fluorescence was measured at 544 nm and 590 nm excitation and emission wavelengths, respectively, using a Synergy 2 Multi-Mode Reader (Biotek, Winooski, VT, USA). Results are shown as % of parasite growth inhibition compared to control (untreated parasites) and represent the average of at least three independent experiments. The effect was evaluated by the determination of the IC50 value (concentration required to inhibit growth in 50%) and was calculated by non-linear regression curves using GraphPad Prism software, version 8.1.1 for Windows (GraphPad Software, San Diego, CA, USA).

[2] = test system: Candida albicans ATCC 10231; test: Antifungal broth microdilution (CLSI M27-A3), MIC/MLC; conditions: for MIC: Candida albicans, ATCC10231, broth microdilution, 16 to 512 µg/mL, 48 h at 36 °C
Method: (§1) All tested compounds (9a–9d, 10a–10c, 13, 14, and eugenol (1)) were prepared in DMSO (Sigma-Aldrich, St. Louis, MO, USA) at a concentration of 10 mg/mL. The reference drugs used (voriconazole (Sigma-Aldrich, St. Louis, MO, USA) for fungi and quality control; gentamicin (Sigma-Aldrich, St. Louis, MO, USA) for bacterial and quality control) were prepared at 6.4 mg/mL. The stock solutions of the compounds were stored at –20 °C until immediately before the assays and then were diluted in fresh culture medium, RPMI-1640 medium (Biochrom AG, Berlin, Germany) buffered with 3-(N-morpholino)propanesulfonic acid (MOPS—Sigma-Aldrich, St. Louis, MO, USA) for fungi and cation-adjusted Mueller–Hinton broth (MHBII—Becton Dickinson, France) for bacteria, henceforth referred to as RPMI and MHB, respectively.
(§2) Fungal strains, including reference strains and clinical isolates, were used for the study of the antifungal activity: a yeast reference strain from American Type Culture Collection (ATCC), Candida albicans ATCC 10231; filamentous fungi reference strain Aspergillus fumigatus ATCC 240305; and a clinical isolate of dermatophytes Trichophyton rubrum FF5. Candida krusei ATCC 6258 was used as a quality control. All fungal strains were stored in Sabouraud dextrose broth (SDB—Bio-Mèrieux, Marcy L’Etoile, France) with glycerol (20%) at −80 °C and were subcultured in Sabouraud dextrose agar (SDA—Bio-Mèrieux, Marcy L’Etoile, France) for 24–72 h (yeasts and A. fumigatus) or 5–7 days (T. rubrum) before each assay to obtain optimal growth and purity conditions. Two bacteria strains were used, one Gram positive and one Gram negative: Staphylococcus aureus ATCC 25923 and Escherichia coli ATCC 25922, respectively. The bacterial strains were stored in trypticase soy broth (TSB—Biolife, Milan, Italy) with glycerol (10%) at −80 °C and subcultured in Mueller–Hinton agar (MHA—Bio-Mèrieux, Marcy L’Etoile, France) for 24 h before each assay.
(§3) For the purpose of quantitatively measuring the antifungal activity in vitro, a broth microdilution method was used to determine the MICs using the CLSI reference protocols M27-A3 [27] for yeasts and M38-A2 [28] for filamentous fungi. In short, two-fold serial dilutions of each stock solution were prepared using RPMI medium (pH 7) to obtain a range of test concentrations from 16 to 512 μg/mL. The yeasts or spore suspensions were prepared from 24 to 72-h cultures (yeasts and Aspergillus) or from 5–7 days of cultures (dermatophyte) in saline solution (with a drop of Tween 20 for the filamentous fungi). The transmittance of the cell density of yeasts was adjusted to 0.5 McFarland standard, and for filamentous fungi, the spores were counted using a Neubauer camera. Dilutions were performed using RPMI to obtain cell final concentrations in the plate of 0.5–2.5 × 10^3 colony forming units (CFU)/mL for yeasts, 0.4–5 × 10^4 CFU/mL for Aspergillus, and 1–3 × 10^3 CFU/mL for dermatophytes. Plates with the prepared serial dilutions of the tested compounds were inoculated with the same volume of the fungal suspension, and sterility (wells with only culture medium), growth (wells with cell suspensions in culture medium), and DMSO controls (wells with cell suspensions in culture medium containing 1% DMSO) were included in each assay. […] For the tested compounds, MIC values were considered the minimum concentration that inhibited the yeast growth by 100% compared to the growth control. The reference drug, voriconazole, was tested against C. krusei ATCC 6258 as a quality control, and the results were within the limits of CLSI reference documents.
(§4) After MIC readings, 10 μL of suspension were collected from wells corresponding to the MIC and the highest concentration following the MIC and were deposited in SDA plates. The plates were incubated following the conditions previously mentioned for the MIC evaluation, and the MLC was determined as the lowest concentration at which no fungal growth is observed.

[3] = test system: Aspergillus fumigatus ATCC 240305; test: Antifungal broth microdilution (CLSI M38-A2), MIC/MLC; conditions: for MIC: Aspergillus fumigatus, ATCC240305, broth microdilution, 16 to 512 µg/mL, 48 h at 36 °C
Method: as §1, §2, §3, §4

[4] = test system: Trichophyton rubrum FF5; test: as above; conditions: for MIC: Trichophyton rubrum, FF5, broth microdilution, read-out: MIC T. rubrum; for MIC / MIC T. rubrum: 16 to 512 µg/mL, 5–7 days at 26 °C; for MIC T. rubrum: broth microdilution; for MLC T. rubrum: minimum lethal concentration, subculture on SDA after MIC reading
Method: as §1, §2, §3, §4

[5] = 72 h incubation, resazurin, highest concentration tested 40 µM, 95% CI in parentheses
[6] = minimum lethal concentration, subculture on SDA after MIC reading

Row | IC50 [1, 5] [µM] | MIC [2] [µg/mL] | MIC [3] [µg/mL] | MIC [4] [µg/mL] | MIC T. rubrum [4] [µg/mL] | Structure (SMILES) | MLC T. rubrum [4] [µg/mL] | IC50 ([1]; 72 h) [µM] | MLC C. albicans [2, 6] [µg/mL] | MLC A. fumigatus [3, 6] [µg/mL]
1 | > 40 | > 512 | > 512 | 512 (≈ 1260 µM) | 256 to 512 | C=CCc1cc(Cn2cc(C(=O)Nc3ccccc3C(N)=O)nn2)c(O)c(OC)c1 [9a, 1-(5-allyl-2-hydroxy-3-methoxybenzyl)-N-(2-carbamoylphenyl)-1H-1,2,3-triazole-4-carboxamide] | > 512 |  |  | 
2 | > 40 | > 512 | > 512 | > 512 |  | C=CCc1cc(Cn2cc(C(=O)Nc3ccc(OC)cc3C(N)=O)nn2)c(O)c(OC)c1 [9b, 1-(5-allyl-2-hydroxy-3-methoxybenzyl)-N-(2-carbamoyl-4-methoxyphenyl)-1H-1,2,3-triazole-4-carboxamide] |  |  |  | 
3 | 7.54 | > 512 | > 512 | > 512 |  | C=CCc1cc(Cn2cc(C(=O)Nc3ccc(F)cc3C(N)=O)nn2)c(O)c(OC)c1 [9c, 1-(5-allyl-2-hydroxy-3-methoxybenzyl)-N-(2-carbamoyl-4-fluorophenyl)-1H-1,2,3-triazole-4-carboxamide] |  |  |  | 
4 | > 40 | > 512 | > 512 | 512 (≈ 1160 µM) | 256 to 512 | C=CCc1cc(Cn2cc(C(=O)Nc3ccc(Cl)cc3C(N)=O)nn2)c(O)c(OC)c1 [9d, 1-(5-allyl-2-hydroxy-3-methoxybenzyl)-N-(2-carbamoyl-4-chlorophenyl)-1H-1,2,3-triazole-4-carboxamide] | > 512 |  |  | 
5 | > 40 | > 512 | > 512 | 512 (≈ 1310 µM) | 256 to 512 | C=CCc1cc(Cn2cc(-c3nc4ccccc4c(=O)[nH]3)nn2)c(O)c(OC)c1 [10a, 2-(1-(5-allyl-2-hydroxy-3-methoxybenzyl)-1H-1,2,3-triazol-4-yl)quinazolin-4(3H)-one] | > 512 |  |  | 
6 | > 40 | > 512 | > 512 | > 512 |  | C=CCc1cc(Cn2cc(-c3nc4ccc(OC)cc4c(=O)[nH]3)nn2)c(O)c(OC)c1 [10b, 2-(1-(5-allyl-2-hydroxy-3-methoxybenzyl)-1H-1,2,3-triazol-4-yl)-6-methoxyquinazolin-4(3H)-one] |  |  |  | 
7 | > 40 | > 512 | > 512 | 512 (≈ 1260 µM) | 256 to 512 | C=CCc1cc(Cn2cc(-c3nc4ccc(F)cc4c(=O)[nH]3)nn2)c(O)c(OC)c1 [10c, 2-(1-(5-allyl-2-hydroxy-3-methoxybenzyl)-1H-1,2,3-triazol-4-yl)-6-fluoroquinazolin-4(3H)-one] | > 512 |  |  | 
8 | > 40 | > 512 | > 512 | > 512 |  | C=CCc1ccc(OCc2cn(CC(=O)Nc3ccccc3C(=O)O)nn2)c(OC)c1 [compound 13, 2-(2-(4-((4-allyl-2-methoxyphenoxy)methyl)-1H-1,2,3-triazol-1-yl)acetamido) benzoic acid] |  |  |  | 
9 | > 40 | > 512 | > 512 | 256 to 512 (≈ 656 to 1310 µM) | 256 to 512 | C=CCc1cc(Cn2cc(-c3nc4ccccc4c(=O)o3)nn2)c(O)c(OC)c1 [compound 14, 2-(1-(5-allyl-2-hydroxy-3-methoxybenzyl)-1H-1,2,3-triazol-4-yl)-4H-benzo[d][1,3]oxazin-4-one] | > 512 |  |  | 

Row | Structure (SMILES) | IC50 [1, 5] [µM] | MIC [2] [µg/mL] | MIC [3] [µg/mL] | MIC [4] [µg/mL] | MIC T. rubrum [4] [µg/mL] | MLC T. rubrum [4] [µg/mL] | IC50 ([1]; 72 h) [µM] | MLC C. albicans [2, 6] [µg/mL] | MLC A. fumigatus [3, 6] [µg/mL]
10 | C=CCc1ccc(O)c(OC)c1 [Eugenol, eugenol, reference compound] |  | 512 (≈ 3120 µM) | 512 (≈ 3120 µM) | 256 (≈ 1560 µM) |  |  | > 40 | > 512 | > 512

Source: publication PMC10671849, “Synthesis and Evaluation of Marine-Inspired Compounds Result in Hybrids with Antitrypanosomal and Antileishmanial Activities” (Marine Drugs, 2023)
